Consider 3 substances from patent US20220389058A1, “PEPTIDES AND COMPOSITIONS FOR USE IN COSMETICS AND MEDICINE” (LIPOTRUE, S.L., priority 2019, published 2022).

Entries after “also recorded” stand apart in the source; their conditions may differ.

The subject of assay [1] is recombinant mushroom tyrosinase. Put plainly: Tyrosinase activity, L-DOPA/dopachrome absorbance (Example 11). Type of assay: biochemical. The note with it: 0.05-2.5 mg/mL (Ac-SEQ ID NO: 4-NH2: 0.005-2.5 mg/mL); 30 minutes preincubation, L-DOPA, 2 hours, absorbance 450 nm; vs non-treated control (100%). Here is the method:
Briefly, different concentrations of Ac-SEQ ID NO: 1-NH2 (0.05, 0.25, 0.5 and 2.5 mg/mL), Ac-SEQ ID NO: 2-NH2 (0.05, 0.25, 0.5 and 2.5 mg/mL), Ac-SEQ ID NO: 3-NH2 (0.05, 0.25, 0.5 and 2.5 mg/mL) and Ac-SEQ ID NO: 4-NH2 (0.005, 0.025, 0.05, 0.25, 0.5 and 2.5 mg/mL) and the positive control kojic acid (400 and 800 μM) were incubated with recombinant mushroom tyrosinase for 30 minutes before the addition of L-DOPA (L-3,4 dihidroxiphenilalanine, 2.5 mg/mL in PBS). After 2 hours' reaction at room temperature, the absorbance at 450 nm of each well was determined using the microplate reader Multiskan FC (Thermo Fisher Scientific, Mass., USA), which is directly proportional to the amount of dopachrome in the reaction mixture.

In assay [2] the test system is HEKa cells. Put plainly: Gene expression with Ac-SEQ ID NO: 4-NH2, RT-qPCR in HEKa (Example 17). The note with it: 0.01 mg/mL, 24 hours. The format is cell-based, Human. As to the method:
(§1) A stock solution of the peptide was prepared in water at 1 mg/mL. Working solution was freshly prepared at the specified concentration from stock solution in the corresponding supplemented medium.
(§2) RNA (ribonucleic acid) extraction and RT-qPCR (reverse transcription quantitative polymerase chain reaction) were performed. Briefly, HEKa or HDFa cells were seeded in duplicate (n=2) in 6-well plates at a density of 4×10^5 cells/well and maintained at standard culture conditions (106 Medium supplemented with 1% (v/v) LSGS for HDFa cells; Medium Epilife supplemented with 1% (v/v) EDGS and 1% (v/v) penicillin/streptomycin for HEKa cells; 37° C., 95% room humidity, 5% CO2) for 24 hours.
(§3) Then, cells were treated with peptide Ac-SEQ ID NO: 4-NH2 at the concentration of 0.01 mg/mL for 24 hours. Untreated cells were used as basal or negative control.
(§4) Cells were finally lysed, and replicates were pooled together for RNA extraction using Qiagen RNeasy Mini kit following manufacturer's instructions. Purified RNAs were used to generate the corresponding cDNAs (complementary deoxyribonucleic acids) by reverse transcription using a commercial kit High capacity cDNA reverse transcription kit (Applied Biosystems) which served as templates for amplification. RT-qPCR was performed with the panel of appropriate TaqMan assay probes for genes shown in table 10 (plus GAPDH—Glyceraldehyde 3-phosphate dehydrogenase—that was used as housekeeping gene) and 2×gene expression Master Mix using StepOne plus Real-Time PCR instrument. Amplification included 40 cycles of: 15 seconds at 95° C. (denaturation) and 1 minute at 60° C. (Annealing and extension) (Arya, M., Shergill, I. S., Williamson, M., Gommersall, L., Arya, N., Patel, H. R. (2005) Basic principles of real-time quantitative PCR. Expert Rev. Mol. Diagn.; 5(2):209-19; and Jozefczuk, J. and Adjaye, J. (2011) Quantitative real-time PCR-based analysis of gene expression. Methods Enzymol. 500; 99-109).
(§5) The obtained data was analysed using the ΔΔCt method, which provides the target gene expression values as fold changes in the treated sample compared with an untreated basal sample. Both samples were normalized with the relative expression of a housekeeping gene GAPDH (Glyceraldehyde 3-phosphate dehydrogenase).
In general terms: Real-time PCR tracks product formation cycle by cycle.

The test system of assay [3] is HDFa cells. Put plainly: Gene expression with Ac-SEQ ID NO: 4-NH2, RT-qPCR in HDFa (Example 17). The format is cell-based, Human. The following applies: 0.01 mg/mL, 24 hours. As to the method: as §1, §2, §3
as §4, with “(denaturation) and 1 minute at 60° C.” left out
(§6) The obtained data was analysed using the ΔΔCt method, which provides the target gene expression values as fold changes in the treated sample compared with an untreated basal sample. […]

For assay [4], the system named is IL33. Put plainly: IL33 expression modulation by RT-qPCR in HEKa cells (Example 7). The note with it: 0.01 mg/mL, 24 hours. The format is cell-based, Human. Here is the method:
as §1
as §2, with “Briefly, HDFa and” for “Briefly,”, “HEKa” for “HEKa or HDFa”, “hours. Then, cells were treated with peptide Ac-SEQ ID NO: 1-NH2, Ac-SEQ ID NO: 2-NH2 or Ac-SEQ ID NO: 3-NH2 at the concentration of 0.01 mg/mL for 24 hours. Untreated cells were used as basal or negative control.” for “hours.”
as §4, with “the” for “the panel of”, “IL33” for “genes shown in table 10”, “Amplification included 40 cycles of: 15 seconds at 95° C. (denaturation) and 1 minute at 60° C.” left out
as §6

Assay [5] relates to HDFa cells. Briefly: Expression of genes related with collagen production and extracellular matrix, RT-qPCR in HDFa (Example 10). The format is cell-based, Human. The following applies: 0.01 mg/mL, 24 hours. As to the method: as §1
RNA (ribonucleic acid) extraction and RT-qPCR (reverse transcription quantitative polymerase chain reaction) were performed. Briefly, HDFa cells were seeded in duplicate (n=2) in 6-well plates at a density of 4×10^5 cells/well and maintained at standard culture conditions (106 Medium supplemented with 1% (v/v) LSGS; 37° C., 95% room humidity, 5% CO2) for 24 hours. Then, cells were treated with peptide Ac-SEQ ID NO: 1-NH2 at the concentration of 0.01 mg/mL for 24 and 48 hours. Untreated cells were used as basal or negative control.
as §4, with “table 5” for “table 10”
as §5

Assay [6] concerns HEKa cells. Briefly: Expression of genes related to epidermal cell cohesion, RT-qPCR in HEKa (Example 9). Type of assay: cell-based, Human. The following applies: 0.01 mg/mL, 24 hours. Here is the method:
as §1
RNA (ribonucleic acid) extraction and RT-qPCR (reverse transcription quantitative polymerase chain reaction) were performed. Briefly, HEKa cells were seeded in duplicate (n=2) in 6-well plates at a density of 4×10^5 cells/well and maintained at standard culture conditions (Medium Epilife supplemented with 1% (v/v) EDGS and 1% (v/v) penicillin/streptomycin; 37° C., 95% room humidity, 5% CO2) for 24 hours.
Then, cells were treated with peptide Ac-SEQ ID NO: 1-NH2, Ac-SEQ ID NO: 2-NH2 or Ac-SEQ ID NO: 3-NH2 at the concentration of 0.01 mg/mL for 24 hours. Untreated cells were used as basal or negative control.
as §4, with “table 1” for “table 10”
as §5

With “Ac-Arg-Arg-Gln-Met-Glu-Glu-NH2 (Ac-RRQMEE-NH2) [Ac-SEQ ID NO: 4-NH2, a peptide not of the present invention, very similar comparison peptide]”, in assay [1], the tyrosinase activity entry was “did not inhibit tyrosinase activity in any of the concentrations tested; also recorded: from concentration 0.05 mg/mL and onwards it increased tyrosinase activity in a dose-dependent manner”. For the same substance, in assay [2], the “CDSN Fold change between treated cells and basal control” value was −1.04 Fold change; the “IL33 Fold change between treated cells and basal control” value is −1.01 Fold change; the “OCLN Fold change between treated cells and basal control” value is recorded as −1.08 Fold change; the “SIGIRR Fold change between treated cells and basal control” value is on record as −1.49 Fold change. Further, in assay [2], the “SLC2A1 Fold change between treated cells and basal control” value is on record as −1.07 Fold change; the “TJP1 Fold change between treated cells and basal control” value is listed as −1.04 Fold change. Also, in assay [3], the “COL3A1 Fold change between treated cells and basal control” value is −1.28 Fold change; the “IL1RL1 Fold change between treated cells and basal control” value is given as −1.12 Fold change; the “TIMP2 Fold change between treated cells and basal control” value is −1.26 Fold change.

As to “Ac-Arg-Glu-Gln-Met-Arg-Arg-NH2 (Ac-REQMRR-NH2) [Ac-SEQ ID NO: 3-NH2]”, the tyrosinase activity result in assay [1] was “showed a dose-dependent inhibition of tyrosinase activity at concentrations of 0.25 mg/mL and higher”. Further, the “IL33 gene expression, fold change in treated cells with regard to basal control” value in assay [4] was −3.93 fold change. In assay [5], the “FBN1 Fold change between treated cells and basal control” value amounted to 1.29 Fold change; the “MMP1 Fold change between treated cells and basal control” value is −1.46 Fold change; the “MMP3 Fold change between treated cells and basal control” value is −1.30 Fold change. Also, in assay [6], the “CLDN1 Fold change between treated cells and basal control” value stood at 1.5 Fold change; the “CLDN4 Fold change between treated cells and basal control” value worked out at 1.90 Fold change; the “DSC1 Fold change between treated cells and basal control” value was found to be 1.41 Fold change; the “DSC2 Fold change between treated cells and basal control” value is 1.43 Fold change. Further, in assay [6], the “DSP Fold change between treated cells and basal control” value stood at 1.28 Fold change; the “JUP Fold change between treated cells and basal control” value is given as 1.23 Fold change; the “OCLN Fold change between treated cells and basal control” value was found to be 1.99 Fold change; the “PCDH1 Fold change between treated cells and basal control” value amounted to 2.48 Fold change. In assay [6], the “PKP2 Fold change between treated cells and basal control” value was determined as 1.86 Fold change; the “PPL Fold change between treated cells and basal control” value is 1.52 Fold change; the “TJP1 Fold change between treated cells and basal control” value amounted to 1.43 Fold change.

With “Ac-Met-Arg-Arg-Glu-Gln-Arg-NH2 (Ac-MRREQR-NH2) [Ac-SEQ ID NO: 2-NH2]”, the tyrosinase activity entry in assay [1] was “showed inhibition of tyrosinase activity in a dose-dependent manner from 0.05 mg/mL and onwards”. The “IL33 gene expression, fold change in treated cells with regard to basal control” value in assay [4] was −3.77 fold change. For the same substance, in assay [5], the “FBN1 Fold change between treated cells and basal control” value stood at 1.20 Fold change; the “MMP1 Fold change between treated cells and basal control” value is listed as −1.21 Fold change. For the same substance, in assay [6], the “CLDN4 Fold change between treated cells and basal control” value is on record as 1.51 Fold change; the “OCLN Fold change between treated cells and basal control” value is on record as 1.58 Fold change; the “PCDH1 Fold change between treated cells and basal control” value was 2.14 Fold change; the “PKP2 Fold change between treated cells and basal control” value was determined as 1.42 Fold change. Also, the “TJP1 Fold change between treated cells and basal control” value in assay [6] is reported as 1.34 Fold change.
